Patent US20240081328A1, “Use of 4-Nitro-3-(Trifluoromethyl)Phenol in Killing or Controlling Pomacea Canaliculata, Method for Killing or Controlling Pomacea Canaliculata, and Molluscicide” (priority 2021, published 2024)
Where two headings read alike, the source gives them in different places.

System: Pomacea canaliculata
Test: Immersion test of dilutions in beakers, mortality rate of Pomacea canaliculata
Assay type: in vivo
Conditions: for mortality at 0.0039 µg/mL / mortality at 0.0078 µg/mL / mortality at 0.0156 µg/mL / mortality at 0.0312 µg/mL / mortality at 0.0625 µg/mL / mortality at 0.125 µg/mL / mortality at 0.25 µg/mL / mortality at 0.5 µg/mL: Pomacea canaliculata, read-out: Mortality rate (%) of Pomacea canaliculata at different action time (h); for mortality at 0.0039 µg/mL: 0.0039 mg/L; for mortality at 0.0078 µg/mL: 0.0078 mg/L; for mortality at 0.0156 µg/mL: 0.0156 mg/L; for mortality at 0.0312 µg/mL: 0.0312 mg/L; for mortality at 0.125 µg/mL: 0.125 mg/L; for mortality at 0.25 µg/mL: 0.25 mg/L; for mortality at 0.5 µg/mL: 0.5 mg/L
Protocol: 0.5 mg of 4-nitro-3-(trifluoromethyl)phenol and 0.5 mg of niclosamide were completely dissolved in 1 mL of a dimethyl sulfoxide (DMSO) solution separately, and diluted to 1,000 mL with deaminized water to obtain a 4-nitro-3-(trifluoromethyl)phenol solution with a concentration of 0.5 mg/L and a niclosamide solution with a concentration of 0.5 mg/L.
The two solutions were separately diluted into 7 concentrations of dilutions using a doubling dilution method, including 0.25 mg/L, 0.125 mg/L, 0.0625 mg/L, 0.0312 mg/L, 0.0156 mg/L, and 0.0078 mg/L, and 0.0039 mg/L.
400 mL of the dilutions with different concentrations were separately poured into a 500 mL beaker, 10 Pomacea canaliculata samples were put into the dilution of each concentration, and each bottle mouth was sealed with wire mesh to completely immerse the Pomacea canaliculata in the dilution; clear water was used as a control group.
The experimental data were used to calculate the mortality rate of each treatment according to the following formula. Each calculation result was rounded to two decimal places. A formula for calculating the mortality rate was: […]
In the formula: P represented the mortality rate, in percentage (%); Σ^Ki represented • the number of dead Pomacea canaliculata, in snails; Σ^Ni represented the total number of treated Pomacea canaliculata, in snails.

O=[N+]([O-])c1ccc(O)cc1C(F)(F)F [4-nitro-3-(trifluoromethyl)phenol] was tested, and the “killing of Pomacea canaliculata (in words)” value (0.0625 mg/L, action time of 24 h) was “could kill all Pomacea canaliculata”, the mortality at 0.0039 µg/mL (action time 0 h) was 0% and the mortality at 0.0039 µg/mL (action time 12 h) was 0%. It also gave a mortality at 0.0039 µg/mL (action time 24 h) of 20%, a mortality at 0.0039 µg/mL (action time 36 h) of 50% and a mortality at 0.0039 µg/mL (action time 48 h) of 50%. The mortality at 0.0039 µg/mL (action time 60 h) was 50%, the mortality at 0.0039 µg/mL (action time 72 h) was 70% and the mortality at 0.0078 µg/mL (action time 0 h) was 0%. For the same compound, the mortality at 0.0078 µg/mL (action time 12 h) was 0%, the mortality at 0.0078 µg/mL (action time 24 h) was 40% and the mortality at 0.0078 µg/mL (action time 36 h) was 100%. For the same compound, the mortality at 0.0078 µg/mL (action time 48 h) was 100%, the mortality at 0.0078 µg/mL (action time 60 h) was 100% and the mortality at 0.0078 µg/mL (action time 72 h) was 100%. For the same compound, the mortality at 0.0156 µg/mL (action time 0 h) was 0%, the mortality at 0.0156 µg/mL (action time 12 h) was 10% and the mortality at 0.0156 µg/mL (action time 24 h) was 100%. For the same compound, the mortality at 0.0156 µg/mL (action time 36 h) was 100%, the mortality at 0.0156 µg/mL (action time 48 h) was 100% and the mortality at 0.0156 µg/mL (action time 60 h) was 100%. It also gave a mortality at 0.0156 µg/mL (action time 72 h) of 100%, a mortality at 0.0312 µg/mL (action time 0 h) of 0% and a mortality at 0.0312 µg/mL (action time 12 h) of 30%. It also gave a mortality at 0.0312 µg/mL (action time 24 h) of 100%, a mortality at 0.0312 µg/mL (action time 36 h) of 100% and a mortality at 0.0312 µg/mL (action time 48 h) of 100%. The mortality at 0.0312 µg/mL (action time 60 h) was 100%, the mortality at 0.0312 µg/mL (action time 72 h) was 100% and the mortality at 0.0625 µg/mL (0.0625 mg/L, action time 0 h) was 0%. It also gave a mortality at 0.0625 µg/mL (0.0625 mg/L, action time 12 h) of 70%, a mortality at 0.0625 µg/mL (0.0625 mg/L, action time 24 h) of 100% and a mortality at 0.0625 µg/mL (0.0625 mg/L, action time 36 h) of 100%. For the same compound, the mortality at 0.0625 µg/mL (0.0625 mg/L, action time 48 h) was 100%, the mortality at 0.0625 µg/mL (0.0625 mg/L, action time 60 h) was 100% and the mortality at 0.0625 µg/mL (0.0625 mg/L, action time 72 h) was 100%. For the same compound, the mortality at 0.125 µg/mL (action time 0 h) was 0%, the mortality at 0.125 µg/mL (action time 12 h) was 100% and the mortality at 0.125 µg/mL (action time 24 h) was 100%. For the same compound, the mortality at 0.125 µg/mL (action time 36 h) was 100%, the mortality at 0.125 µg/mL (action time 48 h) was 100% and the mortality at 0.125 µg/mL (action time 60 h) was 100%. The mortality at 0.125 µg/mL (action time 72 h) was 100%, the mortality at 0.25 µg/mL (action time 0 h) was 0% and the mortality at 0.25 µg/mL (action time 12 h) was 100%. For the same compound, the mortality at 0.25 µg/mL (action time 24 h) was 100%, the mortality at 0.25 µg/mL (action time 36 h) was 100% and the mortality at 0.25 µg/mL (action time 48 h) was 100%. For the same compound, the mortality at 0.25 µg/mL (action time 60 h) was 100%, the mortality at 0.25 µg/mL (action time 72 h) was 100% and the mortality at 0.5 µg/mL (action time 0 h) was 0%. It also gave a mortality at 0.5 µg/mL (action time 12 h) of 100%, a mortality at 0.5 µg/mL (action time 24 h) of 100% and a mortality at 0.5 µg/mL (action time 36 h) of 100%. It also gave a mortality at 0.5 µg/mL (action time 48 h) of 100%, a mortality at 0.5 µg/mL (action time 60 h) of 100% and a mortality at 0.5 µg/mL (action time 72 h) of 100%. For the same compound, the “Pomacea canaliculata killing activity / control effect compared with niclosamide” value (overall conclusion from Tables 2 and 3) was “comparable to that of the niclosamide” and the “killing effect on the Pomacea canaliculata (in words)” value (overall conclusion from the examples) was “obvious killing effect”.
